# Measured values published in ChEMBL document CHEMBL1165930, “The anticancer activity of 3- and 10-bromofascaplysins is mediated by caspase-8, -9, -3-dependent apoptosis” (Bioorg Med Chem, 2010).
# Activity calls are given as the source filed them. The calls are words filed in the database; no cut-off is given here.
# Experiments:
# HL-60 [1] = assay: Induction of apoptosis in human HL60 cells assessed as early apoptotic cells at 500 to 1000 nM after 24 hrs by FITC-conjugated annexin V and propidium iodide staining-based flow cytometry; format: functional
# SK-MEL-28 = assay: Selectivity ratio of INCC50 for human SK-MEL-28 cells to IC50 for human SK-MEL-28 cells; format: functional
# [2] = Effect on proliferation of p53-expressing mouse JB6 Cl41 cells assessed as cell viability at 375 to 500 nM after 6 hrs; format: functional
# HL-60 [3] = assay: Selectivity ratio of INCC50 for human HL60 cells to IC50 for human HL60 cells; format: functional
# HL-60 [4] = assay: Induction of apoptosis in human HL60 cells assessed as decrease in procaspase-9 level at 500 nM after 24 hrs by Western blot analysis; format: functional, cell-based
# HL-60 [5] = assay: Induction of apoptosis in human HL60 cells assessed as decrease in procaspase-8 level at 250 nM after 24 hrs by Western blot analysis; format: functional, cell-based
# [6] = Cytotoxicity against human SNUC4 cells after 22 hrs by MTS assay; format: functional, cell-based; conditions: SNU-C4, 22 h
# [7] = Effect on EGF-stimulated proliferation of mouse JB6 Cl41 cells assessed as cell viability at 250 nM after 22 hrs by MTS assay; format: functional; conditions: JB6 Cl41, 22 h, read-out: Activity
# THP-1 [8] = assay: Induction of apoptosis in human THP1 cells assessed as non-viable necrotic cells at 500 nM after 24 hrs by FITC-conjugated annexin V and propidium iodide staining-based flow cytometry; format: functional
# [9] = Effect on EGF-stimulated proliferation of p38-expressing mouse JB6 Cl41 cells assessed as cell viability at 250 nM after 22 hrs by MTS assay; format: functional; conditions: JB6 Cl41, 22 h, read-out: Activity
# [10] = Effect on EGF-stimulated proliferation of JNK1-expressing mouse JB6 Cl41 cells assessed as cell viability at 125 nM after 22 hrs by MTS assay; format: functional; conditions: JB6 Cl41, 22 h, read-out: Activity
# THP-1 [11] = assay: Induction of apoptosis in human THP1 cells assessed as early apoptotic cells at 500 nM after 24 hrs by FITC-conjugated annexin V and propidium iodide staining-based flow cytometry; format: functional
# HL-60 [12] = assay: Induction of apoptosis in human HL60 cells assessed as early apoptotic cells at 250 nM after 24 hrs by FITC-conjugated annexin V and propidium iodide staining-based flow cytometry; format: functional
# HL-60 [13] = assay: Induction of apoptosis in human HL60 cells assessed as decrease in procaspase-3 level at 250 nM after 24 hrs by Western blot analysis; format: functional, cell-based
# [14] = Effect on EGF-stimulated proliferation of ERK2-expressing mouse JB6 Cl41 cells assessed as cell death at 250 nM after 22 hrs by MTS assay; format: functional
# [15] = target: Transcription factor Jun (Mus musculus) (UniProt P05627); assay: Induction of AP1-mediated transcriptional activity in mouse JB6 Cl41 cells at 125 to 250 nM after 6 hrs by luciferase reporter gene assay relative to control; format: cell-based
# [16] = target: Transcription factor Jun (Mus musculus) (UniProt P05627); assay: Induction of AP1-mediated transcriptional activity in mouse JB6 Cl41 cells after 24 hrs by luciferase reporter gene assay; format: cell-based
# THP-1 [17] = assay: Induction of apoptosis in human THP1 cells assessed as viable cells at 500 nM after 24 hrs by FITC-conjugated annexin V and propidium iodide staining-based flow cytometry; format: functional; conditions: THP-1, 24 h, read-out: Activity
# HL-60 [18] = assay: Induction of apoptosis in human HL60 cells assessed as decrease in procaspase-8 level at 500 nM after 24 hrs by Western blot analysis; format: functional, cell-based
# MDA-MB-231 = assay: Cytotoxicity against human MDA-MB-231 cells after 22 hrs by MTS assay; format: functional, cell-based; conditions: MDA-MB-231, 22 h
# HL-60 [19] = assay: Induction of apoptosis in human HL60 cells assessed as decrease in Bid protein level at 500 nM after 24 hrs by Western blot analysis; format: functional, cell-based
# HL-60 [20] = assay: Induction of apoptosis in human HL60 cells assessed as decrease in PARP level at 500 nM after 24 hrs by Western blot analysis; format: functional, cell-based
# JB6 Cl41 [21] = assay: Effect on EGF-stimulated proliferation of p38-expressing mouse JB6 Cl41 cells at 125 nM after 22 hrs by MTS assay; format: functional, cell-based
# HL-60 [22] = assay: Anticancer activity in human HL60 cells assessed as inhibition of colony formation by anchorage-independent soft agar assay; format: functional
# HL-60 [23] = assay: Induction of apoptosis in human HL60 cells assessed as total apoptotic cells at 50 to 100 nM after 24 hrs by FITC-conjugated annexin V and propidium iodide staining-based flow cytometry; format: functional
# JB6 Cl41 [24] = assay: Inhibition of EGF-stimulated neoplastic transformation of mouse JB6 Cl41 cells by anchorage-independent soft agar assay; format: functional, cell-based
# [25] = target: Transcription factor Jun (Mus musculus) (UniProt P05627); assay: Induction of AP1-mediated transcriptional activity in mouse JB6 Cl41 cells at 15 to 500 nM by luciferase reporter gene assay; format: cell-based
# HL-60 [26] = assay: Cytotoxicity against human HL60 cells after 22 hrs by MTS assay; format: functional, cell-based; conditions: HL-60, 22 h
# THP-1 [27] = assay: Induction of apoptosis in human THP1 cells assessed as late apoptotic cells at 500 nM after 24 hrs by FITC-conjugated annexin V and propidium iodide staining-based flow cytometry; format: functional
# HL-60 [28] = assay: Induction of apoptosis in human HL60 cells assessed as decrease in procaspase-9 level at 250 nM after 24 hrs by Western blot analysis; format: functional, cell-based
# HL-60 [29] = assay: Induction of apoptosis in human HL60 cells assessed as change in mitochondrial permeability at 500 nM after 24 hrs by DiOC6 staining-based flow cytometry (RVb = 90.3%); format: functional
# THP-1 [30] = assay: Anticancer activity in human THP1 cells assessed as inhibition of colony formation by anchorage-independent soft agar assay; format: functional
# HL-60 [31] = assay: Induction of apoptosis in human HL60 cells assessed as decrease in procaspase-3 level at 500 nM after 24 hrs by Western blot analysis; format: functional, cell-based
# Chain of Transcription factor Jun (Mus musculus) (P05627 whole entry): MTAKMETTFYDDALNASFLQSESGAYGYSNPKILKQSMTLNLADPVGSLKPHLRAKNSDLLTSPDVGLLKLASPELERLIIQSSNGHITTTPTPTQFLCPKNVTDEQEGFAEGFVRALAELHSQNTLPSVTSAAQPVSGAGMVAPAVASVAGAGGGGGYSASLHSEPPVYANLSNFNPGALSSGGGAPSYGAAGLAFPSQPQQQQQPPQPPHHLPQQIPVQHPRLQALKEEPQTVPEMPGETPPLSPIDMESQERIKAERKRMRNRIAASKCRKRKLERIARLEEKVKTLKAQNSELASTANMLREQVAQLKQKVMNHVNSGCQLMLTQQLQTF
smiles,measurement,setting,value
O=C1c2ccc(Br)cc2-[n+]2ccc3c([nH]c4ccccc43)c21.[Cl-],Activity,HL-60 [1],20%
same,Selectivity ratio,SK-MEL-28,4.8
same,Activity,[2],50%
same,Selectivity ratio,HL-60 [3],5.3
same,inhibition,HL-60 [4],Active
same,inhibition,HL-60 [5],Active
same,IC50,[6],238 nM
same,viability at 0.25 µM,[7],60%
same,Activity,THP-1 [8],6.4%
same,viability at 0.25 µM,[9],40%
same,viability at 0.125 µM,[10],60%
same,Activity,THP-1 [11],13%
same,Activity,HL-60 [12],40%
same,inhibition,HL-60 [13],Active
same,Activity,[14],100%
same,fold change (FC),[15],2
same,Activity,[16],Dose-dependent effect
same,viability at 0.5 µM,THP-1 [17],68.2%
same,inhibition,HL-60 [18],Active
same,IC50,MDA-MB-231,575 nM
same,inhibition,HL-60 [19],Active
same,inhibition,HL-60 [20],Active
same,Activity,JB6 Cl41 [21],inactive
same,INCC50,HL-60 [22],103.5 nM
same,Activity,HL-60 [23],20%
same,inhibition,JB6 Cl41 [24],Dose-dependent effect
same,Activity,[25],tde
same,IC50,HL-60 [26],549 nM
same,Activity,THP-1 [27],12.4%
same,inhibition,HL-60 [28],Active
same,Activity,HL-60 [29],30.6%
same,INCC50,THP-1 [30],59.7 nM
same,inhibition,HL-60 [31],Active
